Reference: patent US6662040B1, “Methods of photoacoustic imaging” (Amersham Health AS, priority 1997, dated 2003)

What was measured:
[1] = Photoacoustic imaging with infrared radiation in mice; format: in vivo, hairless, immunocompetent mice; conditions: 100 μl i.v. tail vein of 4.6 mg/ml in PBS, 750 nm alexandrite laser, immediately following injection
Description: The dry contrast agent (4.6 mg) was dissolved immediately before use in 1 ml phosphate buffered saline (Delbecco's buffer). The solution was doubly filtered through a syringe filter with a pore size of 0.45 μm and then was stored in the dark before injection.
The test animals were hairless, immunocompetent mice weighing about 23 g, which were anaesthetized I. m. with 5 μl xylazine (Rompun) and 10 μl ketamine prior to the measurements.
The irradiating light was produced by an alexandrite laser operating at a frequency of 750 nm. The light beam was attenuated with a neutral density filter so that the energy imparted by each pulse to the skin of the mice was less than 50 millijoules.
For imaging, the mouse rested on the lithium niobate acoustic transducer. The photoacoustic signal was detected after it passed to the opposite side of the mouse from incident radiation. The signal was detected after it passed through the body of the mouse to the opposite side from the point of irradiation.
Before injection of the contrast agent, the first mouse was positioned on its back on the transducer so as to maximize the internal signal when the skin above the liver was irradiated. […] The injected dose was 100 μl injected intravenously into the tail vein with a 26 gauge needle. Immediately following injection, the mouse was again positioned for a maximum signal.

HT-29 tumors = test: Comparative biodistribution in mice containing HT-29 tumors; format: in vivo, female immunodeficient mice; conditions: for detection in the tumor: PBS solution
Description: (§1) FIG. 1a is a graph of comparative biodistribution data of contrast agent NC100448 versus indocyanine green as control in female immunodeficient mice containing HT-29 tumors at one hour post intravenous injection of phosphate buffered saline solutions of each.
as §1, with “1b” for “1a”, “three hours” for “one hour”, “each. […] Relative to FIG. 1a, the concentration of the contrast agent in the tumor has increased while the concentration in the blood has decreased.” for “each.”
Biodistribution results are presented in FIGS. 1a (one hour post-dosing) and 1b (three hours post-dosing).

[2] = not told
Description: Monochromatic X-rays with a photon energy of 20 to 30 keV are obtained with a double crystal monochromator using white X-rays from a sychrotron. The beam intensity is modulated by a rotating lead plate chopper with a frequency of 10 Hz. The sample chamber is a cylindrical cell with a volume of about 0.5 ml in a saline bath which has two beryllium windows. The photon flux into the sample chamber is measured with an ionization chamber placed in front.
The amplitude of the photoacoustic signal, normalized to the photon flux, is measured when the sample chamber contains the saline solution and when it contains a barium sulfate suspension.
The amplitude of the photoacoustic signal, normalized to the photon flux, is measured when the sample chamber contains the saline solution and when it contains a solution of iodixanol in PBS.

[3] = cited from earlier work
[4] = one hour post intravenous injection
[5] = three hours post intravenous injection

Molecule: bis(thioether) 2:1 dye:polymer Reaction Product Between 2-[2-[2-chloro-3-[[1,3-dihydro-1,1,-dimethyl-3-(3-sulfopropyl)-2H-benz [e]indol-2-ylidene]ethylidene]-5-(ethoxycarbonyl)-1-cyclohexen-1-yl]ethenyl]-1,1-dimethyl-3-(3-sulfopropyl)-1H-benz[e]indolium, Inner Salt, Sodium Salt and Disodium PEG3,4000-α,ω-dithiolate [NC100448]
- maximum detected signal from the blood vessels of the liver versus prior to injection [1]: 5 to 10 times larger
- detection in the tumor (HT-29 tumors; [4]): detected in the tumor
- concentration in the blood relative to FIG. 1a (one hour) (HT-29 tumors; [5]): decreased
- concentration in the tumor relative to FIG. 1a (one hour) (HT-29 tumors; [5]): increased
- detection in the tumor (HT-29 tumors; [5]): detected in the tumor

Molecule: CC(=O)N(CC(O)CN(C(C)=O)c1c(I)c(C(=O)NCC(O)CO)c(I)c(C(=O)NCC(O)CO)c1I)c1c(I)c(C(=O)NCC(O)CO)c(I)c(C(=O)NCC(O)CO)c1I (stereo not shown) [iodixanol]
- amplitude of the photoacoustic signal normalized to photon flux, versus saline solution [2]: larger

Molecule: Oc1ccc2ccccc2c1N=Nc1ccc(N=Nc2ccccc2)cc1 [Sudan III]
- solubility in sesame oil ([3]; sesame oil): soluble in sesame oil
- solubility in water ([3]; water): very water insoluble

Molecule: CC1(C)C(/C=C/C=C/C=C/C=C2\N(CCCCS(=O)(=O)O)c3ccc4ccccc4c3C2(C)C)=[N+](CCCCS(=O)(=O)[O-])c2ccc3ccccc3c21 [indocyanine green]
- detection in the tumor (HT-29 tumors; [4]): negligibly detected
- detection in the tumor (HT-29 tumors; [5]): negligibly detected
